Like-named read-outs stand apart in the source and are kept apart here.
Columns and labels:
rat D4 receptor = target: T1, rat D4 receptor (Rattus norvegicus, UniProt P30729); assay: biochemical
T1 sequence (P30729 1-387): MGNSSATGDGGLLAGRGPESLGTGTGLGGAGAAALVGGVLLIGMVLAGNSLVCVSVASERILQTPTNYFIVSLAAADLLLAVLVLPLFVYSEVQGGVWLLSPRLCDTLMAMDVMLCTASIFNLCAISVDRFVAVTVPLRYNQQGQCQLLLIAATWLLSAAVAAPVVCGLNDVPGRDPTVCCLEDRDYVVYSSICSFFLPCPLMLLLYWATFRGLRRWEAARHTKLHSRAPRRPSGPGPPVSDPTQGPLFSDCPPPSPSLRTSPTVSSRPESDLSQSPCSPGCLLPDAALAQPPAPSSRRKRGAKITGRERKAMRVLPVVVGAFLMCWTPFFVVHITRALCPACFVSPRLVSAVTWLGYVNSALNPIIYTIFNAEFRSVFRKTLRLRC
Excerpt: FIG. 4 is a pharmacological analysis of transfected rat D2444 and D4 receptors and human D3 receptors in CCL1.3 cells. […] FIG. 4B is a graph of [^3H]-spiperone (%) versus log [(+)butaclamol, M]. […] The rat D4 gene, the rat D2444 cDNA and the human D3 cDNA were inserted into the expression vector pcDNA/neo and transfected into CCL1.3 cells. […] Open circles, D4-expressing cells; closed circles, D2444-expressing cells, triangles, D3-expressing cells. Results are shown as mean±SD of percent of specifically bound [^3H]spiperone remaining for an experiment done in triplicate.
Mouse fibroblasts expressing D2A444 and D4 were grown to 70% confluence and then harvested by scraping. After they had been washed twice in PBS, the cell pellets were resuspended in distilled water and ruptured by homogenization with a Brinkman Polytron, at setting 6 for 10 sec. Nuclei were removed by centrifugation for 5 min at 600 g. Membranes were pelleted by centrifugation for 25 min at 50,000 g. The pellets were resuspended in water and frozen at −70° C. until assayed. For receptor binding assays, samples containing 150 μg of membrane protein were aliquoted into glass test tubes. [^3H]-Spiperone (1 nm) and varying concentrations of competing compounds were added in a final volume of 1 ml and a final buffer of 1.5 Mm CaCl2, 5 mM MgCl2, 5 mM KCl, 120 mM NaCl, 50 mM Tris-HCl, pH 7.4 at 20° C. The tubes were incubated for 15 min at 37° C., and the assays were terminated by addition of 5 ml of ice-cold 50 Mm Tris-HCl buffer (pH 6.9), collected onto glass-fiber filters, and washed twice with the same cold buffer in a modified Brandel cell harvester.
Transfected cells were enriched by expansion in medium containing G418. The rat D2 cDNA and the human D3 cDNA were expressed in the same cell line.

[1] = test system: D4 transfected MN9D cells; assay: Neurite morphology of D4 transfected MN9D cells; details: 1 μM eticlopride co-cultured with 2 μM quinpirole
[2] = test system: D3 transfected MN9D cells; assay: Neurite morphology of D3 transfected MN9D cells; details: 1 μM eticlopride co-cultured with 2 μM quinpirole
[3] = test system: D2A444 transfected MN9D cells; assay: Neurite morphology of D2A444 transfected MN9D cells; details: 1 μM eticlopride co-cultured with 2 μM quinpirole
[4] = test system: tyrosine hydroxylase expressing cells from E15 rat mesencephalon; assay: Morphology of tyrosine hydroxylase positive cells in primary E15 mesencephalon cultures; assay type: cell-based; details: 2 μM quinpirole, 90 hours, high density culture
Excerpt: Cultures were then fixed and dopamine synthesizing cells identified by tyrosine hydroxylase immunoreactivity. […] There are five TH positive cells in the control condition and three TH positive cells in the quinpirole condition.

CCc1cc(Cl)c(OC)c(C(=O)NC[C@@H]2CCCN2CC)c1O [eticlopride]
Ki (rat D4 receptor; Ki (D4)): 22.3 ± 1.9 nM | Ki (rat D4 receptor; apparent Ki, D4 receptor): 27 ± 2.9 nM | block of the effects of quinpirole stimulation [1]: can be blocked | block of the effects of quinpirole stimulation [2]: can be blocked | block of the effects of quinpirole stimulation [3]: can be blocked

(+)butaclamol [(+) butaclamal]
Ki (rat D4 receptor; read-out: apparent Ki, D4 receptor, transfected CCL1.3 cells, competition of 1 nM [3H]spiperone, mean±SEM): 51.3 ± 17.5 nM

CCCN1CCC[C@@H]2Cc3n[nH]cc3C[C@H]21 [quinpirole]
morphology of TH positive cells versus control (in words) [4]: larger, have more branch points and much more extensive growth cone elaboration

Source: US6486310B1, “Gene encoding the rat dopamine D4 receptor” (Washington University, priority 1993, dated 2002)
